Measurements: article PMC5923120, “Acylhydrazones as Antifungal Agents Targeting the Synthesis of Fungal Sphingolipids” (Antimicrobial Agents and Chemotherapy, 2018)
≈ marks a conversion by molar mass, not a printed value. Like-named read-outs stand apart in the source and are kept apart here.

How the values were obtained:
Caco-2 cell line = test: Caco-2 permeability; details: human, Caco-2, 2 h, 5 μM, pH 7.4
Method: (§2) The Caco-2 permeability studies were performed as follows. (i) For the preparation of Caco cells, 50-μl and 25-ml volumes of cell culture medium were added to each well of the Transwell insert and reservoir, respectively. The HTS Transwell plates then were incubated at 37°C, 5% CO2 for 1 h before cell seeding. […] (ii) For the preparation of stock solutions, 10 mM stock solutions of test compounds were prepared in DMSO. The stock solutions of positive controls were prepared in DMSO at a concentration of 10 mM. Digoxin and propranolol were used as control compounds in this assay. (iii) For the assessment of cell monolayer integrity, medium was removed from the reservoir and each Transwell insert and replaced with prewarmed fresh culture medium. Transepithelial electrical resistance (TEER) across the monolayer was measured using a Millicell epithelial volt-Ohm measuring system (Millipore, USA). The plate was returned to the incubator once the measurement was done. The TEER value was calculated according to the following equation: TEER measurement (ohms) × area of membrane (cm^2) = TEER value (ohm · cm^2). The TEER value should be greater than 230 Ω · cm^2, which indicates a well-qualified Caco-2 monolayer. (iv) The assay was performed as follows. The Caco-2 plate was removed from the incubator and washed twice with prewarmed Hanks' balanced salt solution (HBSS; with 10 mM HEPES, pH 7.4) and then incubated at 37°C for 30 min. The stock solutions of control compounds were diluted in DMSO to get 1 mM solutions and then diluted with HBSS (10 mM HEPES, pH 7.4) to get 5 μM working solutions. The stock solutions of the test compounds were diluted in DMSO to get 1 mM solutions and then diluted with HBSS (10 mM HEPES, pH 7.4) to get 5 μM working solutions. The final concentration of DMSO in the incubation system was 0.5%. To determine the rate of drug transport in the apical to basolateral direction, 75 μl of 5 μM working solution of test compound was added to the Transwell insert (apical compartment), and the wells in the receiver plate (basolateral compartment) were filled with 235 μl of HBSS (10 mM HEPES, pH 7.4). To determine the rate of drug transport in the basolateral to apical direction, 235 μl of 5 μM working solution of test compound was added to the receiver plate wells (basolateral compartment), and then the Transwell inserts (apical compartment) were filled with 75 μl of HBSS (10 mM HEPES, pH 7.4). Time zero samples were prepared by transferring 50 μl of 5 μM working solution to wells of the 96-deep-well plate, followed by the addition of 200 μl cold acetonitrile or methanol containing appropriate IS. The plates were incubated at 37°C for 2 h. At the end of the incubation, 50-μl samples from donor sides (apical compartment for AP→BL flux and basolateral compartment for BL→AP) and receiver sides (basolateral compartment for AP→BL flux and apical compartment for BL→AP) were transferred to wells of a new 96-well plate, followed by the addition of 4 volumes of cold acetonitrile or methanol containing appropriate IS. […] An aliquot of 100 μl of the supernatant was mixed with an appropriate volume of ultrapure water before LC-MS/MS analysis. To determine the Lucifer yellow leakage after a 2-h transport period, a stock solution of Lucifer yellow was prepared in ultrapure water and diluted with HBSS (10 mM HEPES, pH 7.4) to reach a final concentration of 100 μM. One hundred microliters of the Lucifer yellow solution was added to each Transwell insert (apical compartment), followed by filling the wells in the receiver plate (basolateral compartment) with 300 μl of HBSS (10 mM HEPES, pH 7.4). The plates were incubated at 37°C for 30 min, and 80-μl samples were removed directly from the apical and basolateral wells (using the basolateral access holes) and transferred to wells of new 96-well plates.

Caco-2 permeability = details: human; for Papp A→B at 2 h, 5 μM / Papp B→A at 2 h, 5 μM: Caco-2, pH 7.4
Method: as §2

C. albicans = test: Mouse model of invasive candidiasis; assay type: in vivo, mice; details: oral gavage 20 mg/kg/day, i.v. infection with 10^4 cells of C. albicans, after 21 days
Aspergillus fumigatus = test: Mouse model of invasive pulmonary aspergillosis; assay type: in vivo, mice; details: oral 20 mg/kg/day; for lung fungal burden (CFU) of surviving mice: at the endpoint, data not shown; for mice that survived: immunosuppressed mice, after 15 days
Method: For survival study, 8-week-old CBA/J (Envigo) male mice were used. They were divided into sets of 10 mice for each treatment or control group. The day prior to infection, the mice were immunosuppressed by using triamcinolone acetonide (1 mg/mouse) subcutaneously ([40]). On day 0, mice were infected intranasally with 20 μl of a suspension containing 2 × 10^4 conidia of A. fumigatus strain Af293 and were treated through gavage with 20 mg/kg/day of BHBM, D13, or voriconazole (as a drug control) in a final volume of 100 μl of 30% PEG in saline buffer. The untreated control group mice received 100 μl of 30% PEG in saline buffer. Mice were fed ad libitum and were given 50% grapefruit juice in place of normal drinking water to avoid the liver metabolism of the drugs ([41]). Mice were monitored every day for discomfort and sacrificed subsequently.

C. neoformans [1] = test: In vitro susceptibility testing (MIC80); assay type: cell-based, Cryptococcus neoformans
Method: MICs were determined by following the methods of the Clinical and Laboratory Standards Institute (CLSI), with modifications. […] The compounds were serially diluted from 32 to 0.03 μg/ml in a 96-well plate. The inoculum was prepared as described in CLSI protocol M27A3 guidelines ([39]). […] The MICs were determined as the lowest concentration of the compound that inhibited 80% of growth compared to the control.

C. neoformans [2] = test: Mouse model of cryptococcosis; assay type: in vivo, mice; details: for mice that survived: treatment immediately after intranasal infection, 40 days
Candida krusei ATCC 6258 = test: Synergistic assay (FIC), CK Flu R2; assay type: cell-based; details: Pichia kudriavzevii, ATCC6258
Method: (§1) Synergistic activity was assayed by calculating the fractional inhibitory index (FIC). Briefly, in a 96-well plate, drug A (D13) was serially diluted from 16 to 0.015 μg/ml (11 dilutions), whereas drug B (either fluconazole, amphotericin B, caspofungin, itraconazole, or voriconazole) was serially diluted from 12 to 0.19 μg/ml for fluconazole, 5 to 0.078 μg/ml for amphotericin B, or 8 to 0.007 μg/ml for caspofungin, itraconazole, or voriconazole (seven dilutions). The FIC was defined as (MIC combined/MIC drug A alone) + (MIC combined/MIC drug B alone). Synergism was categorized with the following scale: strongly synergistic effect, FIC of <0.5; synergistic effect, FIC of <1; additive effect, FIC of 1; no effect, FIC between 1 and 2; antagonistic effect, FIC of >2.

[3] = tested on: Aspergillus fumigatus 293; test: Synergistic assay (FIC), AF; assay type: cell-based
Method: as §1

Candida albicans A39 = test: Synergistic assay (FIC), CA; assay type: cell-based
Method: as §1

P. murina = test: Murine model of pneumocystosis; assay type: in vivo, mice; details: i.p. 7.2 mg/kg/day
Method: C3H/HeN mice ordered from the National Cancer Institute were infected with P. murina pneumonia through exposure to mice with a fulminant P. murina infection (seed mice). These mice are immune suppressed by the addition of dexamethasone at 4 mg/liter to the drinking water. Sulfuric acid at 1 ml/liter was also added to the drinking water for disinfection. The seed mice were rotated within the cages for 2 weeks and then removed. After the mice had developed a moderate infection level (approximately 5 weeks), the mice were divided into a negative-control group (control steroid), positive-control group (trimethoprim-sulfamethoxazole), and D13 group. Compound was solubilized in DMSO for a stock solution of 50 mg/ml. Compound was refrigerated before and after solubilization. Stock solution was diluted in PBS to a final concentration of 1.8 mg/ml. Mice were intraperitoneally (i.p.) injected with 100 μl of diluted stock for a total dose of approximately 180 μg/day or 7.2 mg/kg/day based on average mouse weights of 25 g. […] Slides were made from the lung homogenates at different dilutions and stained with Diff-Quik to quantify the trophic forms and cresyl echt violet to quantify the asci. Efficacy is based on the reduction of organism burden between the treatment groups and the negative-control group as determined by microscopic evaluation.

Candida krusei = test: Synergistic assay (FIC), CK Flu R1; assay type: cell-based; details: Pichia kudriavzevii
Method: as §1

[4] = mouse, with NADPH
Method: (§3) To test for metabolic stability, 40 μl of 10 mM NADPH solution was added to each well of a 96-well plate. The final concentration of NADPH was 1 mM. The mixture was prewarmed at 37°C for 5 min. The negative-control samples were prepared by replacing NADPH solutions with 40 μl of ultrapure H2O. The negative control was used to exclude the misleading factor that resulted from the instability of the chemical itself. Samples with NADPH were prepared in duplicate. Negative controls were prepared in singlet. The reaction was started with the addition of 4 μl of 200 μM control compound or test compound solutions. […] An aliquot of 90 μl of the supernatant was mixed with 90 μl of ultrapure H2O and then used for LC-MS/MS analysis.

[5] = human, with NADPH
Method: as §3

[6] = tested on: Cryptococcus neoformans H99; test: Synergistic assay (FIC), CN; assay type: cell-based
Method: as §1

Candida albicans 3022 = test: Synergistic assay (FIC), CA Flu-R; assay type: cell-based
Method: as §1

[7] = Cryptococcus neoformans, ChemBridge compounds, Supplementary Table 1, read-out: MIC80
[8] = lowest concentration inhibiting 80% of growth
[9] = i.p. 1.2 mg/kg/day, treatment started 5 days after infection
[10] = oral 20 mg/kg/day starting the day of infection
[11] = oral 20 mg/kg/day, 32 days posttreatment, data not shown

SMILES | Papp A→B at 2 h, 5 μM (Caco-2 permeability) [×10⁻⁶ cm/s] | Papp B→A at 2 h, 5 μM (Caco-2 permeability) [×10⁻⁶ cm/s] | recovery at 2 h, 5 μM (Caco-2 permeability; Caco-2, pH 7.4, Recovery AP→BL) [%] | recovery at 2 h, 5 μM (Caco-2 permeability; Caco-2, pH 7.4, Recovery BL→AP) [%] | mice that survived (C. albicans) [%] | lung fungal burden (CFU) of surviving mice (Aspergillus fumigatus) | mice that survived (Aspergillus fumigatus) [%] | MIC80 (C. neoformans [1]; [7]) [µg/mL] | MIC80 (C. neoformans [1]; [8]) [µg/mL] | mice that survived (C. neoformans [2]; i.p. 1.2 mg/kg/day) [%] | mice that survived until the end of the experiment (C. neoformans [2]; [10]) [%] | further results
Cc1ccccc1C(=O)N/N=C/c1cc(Br)ccc1O [BHBM, (E)-N′-(3-bromo-6-hydroxybenzylidene)-2-methylbenzohydrazide] | 14.3 | 4.71 | ~40 | ~40 | 20 | showed evidence of colonies | 30 | 1 (≈ 3 µM) | 1 (≈ 3 µM) | 50 | 10 | Recovery AP→BL (Caco-2 cell line): 41.88%; Recovery BL→AP (Caco-2 cell line): 39.05%; day by which all mice died (C. neoformans [2]; [9]): ≤ 30 days
O=C(N/N=C/c1cc(Br)cc(Br)c1O)c1ccc(Br)cc1 [D13] | 0.13 | < 1 | 49.8 | 107 | 20 | only one D13-treated mouse showed evidence of colonies | 80 | 0.06 (≈ 0.126 µM) | 0.06 (≈ 0.126 µM) | 70 | 50 | MIC (Candida krusei ATCC 6258): > 1 µg/mL; MIC [3]: > 1 µg/mL; MIC (Candida albicans A39): > 1 µg/mL; Efflux ratio (Caco-2 cell line): 1.74; efflux ratio at 2 h, 5 μM (Caco-2 permeability; Caco-2, pH 7.4, Efflux ratio): < 2; number of asci or nuclei in lung homogenates (P. murina; untreated versus treated mice): No differences; survival (P. murina; versus negative control): did not show better survival; MIC (Candida krusei): > 1 µg/mL; % remaining at 60 min [4]: 62.25%; % remaining at 60 min [5]: 64.95%; mice that survived until the end of the experiment (C. neoformans [2]; [9]): 40%; CFU in brains and lungs (C. neoformans [2]; [11]): only one D13-treated mouse showed fungal colonies and only in the lung; fungal cells in brains (C. neoformans [2]; [11]): clear of fungal cells; MIC [6]: 0.5 µg/mL; MIC (Candida albicans 3022; Candida albicans, 3022, CA Flu-R): > 1 µg/mL; FIC score (Candida albicans 3022; D13 combined with itraconazole, C. albicans clinical isolates resistant to fluconazole): 0.37
